# Tested on: PMA induced ear oedema
# Test: Phorbol 12-myristate 13-acetate induced ear oedema in CD1 mice
# Format: in vivo
# Experimental: Male CD1 mice (Iffa Credo, France) weighing 30-40 g were randomly grouped (n=6 in test group of which the untreated ear served as negative control; 6 in positive control group which also served as their own negative control group). Test compounds, as well as vehicle (Trans-phase Delivery System, containing benzyl alcohol 10%, acetone 40% and isopropanol 50%) (all from Kemika, Croatia), were administered topically to the internal surface of the left ear thirty minutes prior to administration of phorbol 12-myristate 13-acetate (PMA) (Sigma, USA). Test compounds were administered at a dose of 100, 250 or 500 μg/15 μL/ear. Thirty minutes later, 0.01% PMA solution in acetone was applied topically to the inner surface of the left ear of each animal in a volume of 12 μL/ear. During the treatment and challenge (stimulation), animals were anaesthetized with anaesthesia by inhalation. Six hours following challenge, animals were euthanized by intraperitoneal thiopental injection (PLIVA, Croatia). For assessing the auricular oedema, 8 mm discs were cut out of left and right auricular pinna and weighed. The degree of oedema was calculated by subtracting the weight of 8 mm disc of the untreated ear from that of the treated contralateral ear. The inhibition of oedema in the treated animals, presented in the Table 8, is expressed as percentage compared to control mice (0%).
Structure (SMILES),Oedema (% inhibition) (100 μg/ear topical) [%],Oedema (% inhibition) (250 μg/ear topical) [%],Oedema (% inhibition) (500 μg/ear topical) [%]
"CCC1OC(=O)C(C)C(OC2CC(C)(OC)C(OC(=O)CCN(CC)CC)C(C)O2)C(C)C(OC2OC(C)CC(N(C)C)C2O)C(C)(OC)CC(C)C(=O)NC(C)C(O)C1(C)O (stereo not drawn) [Example 8, 4″-O-(3-Diethylamino-propionyl)-6-O-methyl-9a-aza-9a-homoerythromycin A]",54,74,94
"CC[C@H]1OC(=O)[C@H](C)[C@@H](O[C@H]2C[C@@](C)(OC)[C@@H](O)[C@H](C)O2)[C@H](C)[C@@H](O[C@@H]2O[C@H](C)C[C@H](N(C)C)[C@H]2O)[C@](C)(O)C[C@@H](C)CN(C)[C@H](C)[C@@H](O)[C@]1(C)O [azithromycin, reference compound]",0,83,90
